Experimental data taken from patent publication US20250228855A1, “PYRAZINAMIDE COMPOUNDS” (The General Hospital Corporation, priority 2022, published 2025).
pEC50: −log10 of the molar value. Where two headings read alike, the source gives them in different places.

What was measured:
HuH7 cells = experiment: HuH7 host hepatocyte viability assay; format: cell-based; conditions: Homo sapiens, Huh-7; host cell viability
Experimental: (§1) Halofuginone and derivatives are active against liver stage Plasmodium parasites. NCP26 and MAT436 were evaluated in a tissue culture-based P. berghei liver stage model. Specifically, various test compounds were added in dose-response to human hepatocytes (HuH7) followed by infection with luciferase-expressing P. berghei ANKA sporozoites, which enabled quantification of parasite load by luminescence. In parallel, host cell viability was also assessed to provide an estimate of cellular selectivity.
(§2) P. berghei Liver Stage and HuH7 Host Hepatocyte Growth Assay: HuH7 cells (Sigma) were cultured in DMEM+L-Glutamine (Gibco) supplemented with 10% (v/v) heat-inactivated FBS (Sigma) and 1% (v/v) antibiotic/antimycotic (Sigma). Hepatocyte cultures were maintained in a standard tissue culture incubator at 37° C. Anopheles mosquitoes infected with luciferase-expressing P. berghei ANKA sporozoites were obtained from the Sporocore at the University of Georgia. […] At ˜44 hpi, HuH7 cell viability and P. berghei parasite load was assessed using CellTiter-Fluor (Promega) and Bright-Glo (Promega), respectively, using an Envision plate reader. Relative fluorescence and luminescence signal intensities were normalized to the negative control, 1% DMSO. EC50 values were determined using GraphPad Prism through fitting data to a dose response curve. […]

[1] = tested on: luciferase-expressing P. berghei ANKA sporozoites; experiment: P. berghei liver stage assay in HuH7 cells; format: cell-based; conditions: Plasmodium berghei, Huh-7; HuH7 hepatocytes, ~44 hpi, luminescence
Experimental: as §1, §2

P. falciparum Dd2-2D4 = experiment: P. falciparum asexual blood stage growth assay, wild-type Dd2-2D4; conditions: Plasmodium falciparum
Experimental: (§3) Asexual blood stage (ABS) P. falciparum parasites were treated with test compounds at varying concentrations for 72 h, followed by quantification of parasite growth by SYBR Green staining.
(§4) P. falciparum Asexual Blood Stage Growth Assay: This assay was performed as previously described.

HsProRS = target: T1, HsProRS (Homo sapiens, UniProt P07814); experiment: TR-FRET ligand displacement assay with tracer MAT379, HsProRS; format: binding
T1 sequence (P07814 1007-1512 limits assumed): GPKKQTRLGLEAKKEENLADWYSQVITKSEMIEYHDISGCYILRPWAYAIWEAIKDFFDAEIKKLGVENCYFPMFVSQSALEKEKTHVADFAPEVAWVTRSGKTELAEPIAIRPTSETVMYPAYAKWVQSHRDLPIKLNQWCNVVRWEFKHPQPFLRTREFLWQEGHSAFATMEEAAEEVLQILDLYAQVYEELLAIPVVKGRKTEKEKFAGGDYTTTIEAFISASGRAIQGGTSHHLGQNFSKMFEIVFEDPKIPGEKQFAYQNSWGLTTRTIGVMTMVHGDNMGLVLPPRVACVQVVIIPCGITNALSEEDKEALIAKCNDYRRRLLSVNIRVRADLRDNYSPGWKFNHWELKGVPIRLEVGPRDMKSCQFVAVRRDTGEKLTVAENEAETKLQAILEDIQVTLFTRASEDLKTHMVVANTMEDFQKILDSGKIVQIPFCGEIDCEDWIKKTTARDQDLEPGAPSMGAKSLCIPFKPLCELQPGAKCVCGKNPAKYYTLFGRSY

PfcProRS = PfcProRS (Plasmodium falciparum, UniProt Q8I5R7); experiment: TR-FRET ligand displacement assay with tracer MAT379, PfcProRS; format: binding
[2] = tested on: halofuginone-induced (HFG-induced) P. falciparum; experiment: P. falciparum asexual blood stage growth assay, halofuginone-induced parasites; conditions: Plasmodium falciparum
Experimental: as §3, §4

Chain of PfcProRS (Q8I5R7 whole entry): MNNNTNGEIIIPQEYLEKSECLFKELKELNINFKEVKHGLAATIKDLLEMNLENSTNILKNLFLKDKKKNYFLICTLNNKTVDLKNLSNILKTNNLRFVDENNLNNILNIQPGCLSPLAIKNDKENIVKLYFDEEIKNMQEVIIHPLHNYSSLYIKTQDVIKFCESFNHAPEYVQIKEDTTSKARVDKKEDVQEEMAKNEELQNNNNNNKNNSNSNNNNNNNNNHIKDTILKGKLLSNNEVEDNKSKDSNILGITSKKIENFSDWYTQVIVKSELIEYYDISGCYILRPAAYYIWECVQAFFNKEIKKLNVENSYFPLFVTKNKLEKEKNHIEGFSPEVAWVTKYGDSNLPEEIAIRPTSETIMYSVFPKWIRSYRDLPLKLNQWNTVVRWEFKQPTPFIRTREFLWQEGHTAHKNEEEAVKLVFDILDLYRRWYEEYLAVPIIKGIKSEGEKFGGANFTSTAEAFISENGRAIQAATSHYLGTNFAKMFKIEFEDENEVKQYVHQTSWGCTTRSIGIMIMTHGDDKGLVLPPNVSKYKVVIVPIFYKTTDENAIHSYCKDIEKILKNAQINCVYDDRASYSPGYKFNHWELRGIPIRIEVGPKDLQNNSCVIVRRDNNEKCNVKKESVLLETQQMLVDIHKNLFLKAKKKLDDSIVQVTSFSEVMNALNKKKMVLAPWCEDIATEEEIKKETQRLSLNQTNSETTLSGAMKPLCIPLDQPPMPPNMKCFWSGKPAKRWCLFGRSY

Q: What does the source list for `O=C(NC1Cc2ccccc2C1)c1nccnc1NC(=O)N1CCCCC1` [NCP26 (3), N-(2,3-dihydro-1H-inden-2-yl)-3-(piperidine-1-carboxamido)pyrazine-2-carboxamide]?
A: pEC50 (HuH7 cells): < 5.60; pEC50 [1]: 6.60; EC50 (P. falciparum Dd2-2D4; DD2, 72 h, read-out: Dd2 (EC50 [nM]) wt): 67.4 nM; pEC50 (P. falciparum Dd2-2D4; DD2, read-out: EC50 against Dd2-2D4 wildtype parasites): 7.17; Kd (HsProRS; no proline, no ATP, read-out: HsProRS (KD [nM]) −): 271 nM; Kd (HsProRS; read-out: HsProRS (KD [nM]) +ATP, +ATP): 678 nM; Kd (HsProRS; read-out: HsProRS (KD [nM]) +proline, 100 μM Pro): 0.351 nM; Kd (PfcProRS; PfcProRS (KD [nM]) +ATP, 500 μM ATP): 103 nM; Kd (PfcProRS; PfcProRS (KD [nM]) +proline, 100 μM Pro): 2.52 nM; Kd (PfcProRS; no proline, no ATP, read-out: PfcProRS (KD [nM]) −): 130 nM; EC50 ([2]; DD2, 72 h, read-out: Dd2 (EC50 [nM]) Halofuginone-induced): 120 nM; pEC50 ([2]; read-out: EC50 in halofuginone-induced parasites): 6.92
